{
  "source": "patent US6355785B1",
  "about": "“Guanosine-rich oligonucleotide integrase inhibitors” (Aronex Pharmaceuticals, Inc., priority 1993, dated 2002)",
  "key": {"HIV-1DV [1]": {"test_system": "HIV-1DV", "assay": "HIV-1 p24 production in SUP T1 cells", "format": "cell-based", "conditions": "Human immunodeficiency virus 1, 96 h; SUP T1, HIV-1DV, four days"}, "HIV-1": {"test_system": "HIV-1", "conditions": "3.0 mg/kg every other day, 14-day treatment, three patients"}, "HIV-1DV [2]": {"test_system": "HIV-1DV", "assay": "Acute infection of primary human macrophages (intracellular p24)", "format": "cell-based"}, "HIV-1SKI": {"test_system": "HIV-1SKI", "assay": "Single cycle analysis of HIV-1 cDNA, CEM-SS cells", "format": "cell-based", "conditions": "10- to 100-fold over IC50"}, "HIV-1 protease": {"biological_target": "T1, HIV-1 protease (Human immunodeficiency virus type 1 group M subtype B, UniProt P04585)", "T1 construct": "HIV-1 protease enzyme (Bachem) was diluted to 166 ug/mL; purchased Bachem", "assay": "HIV-1 protease assay", "format": "biochemical", "conditions": "up to 10 μM", "description": "Protease assays. HIV-1 protease enzyme (Bachem) was diluted to 166 ug/mL in 50 mM NaOAc, 5 mM DTT, 2 mM ETDA, and 10% glycerol (pH 5.0) and stored as 10 ul aliquots at −20° C. HIV protease substrate I (Molecular Probes) was diluted to a working concentration of 0.32 nmol/μL. Enzyme (20 μL), substrate (20 μL) and drug (20 μL ) were added to each well of a microtiter plate. Positive and negative controls were evaluated in parallel. Fluorescence was quantitated on a Labsystems Fluoroskan II using 355 nm for excitation and 460 nm emission wavelengths at 37° C. at time zero and at 30 minute intervals for 2 hours."}, "HIV-1 integrase IN1-288": {"biological_target": "T2, HIV-1 integrase IN1-288 (Human immunodeficiency virus type 1 group M subtype B, UniProt P12497)", "T2 construct": "purchased gift of Drs; T. Jenkins and R. Craigie, NIDDK, NIH (not bought; the expression system was also provided)", "assay": "Disintegration assay, wild-type integrase", "format": "biochemical"}, "[3]": {"biological_target": "T3, HIV-1 integrase deletion mutant IN50-288 (Human immunodeficiency virus type 1 group M subtype B, UniProt P12497)", "T3 construct": "purchased gift of Drs; T. Jenkins and R. Craigie, NIDDK, NIH (not bought)", "assay": "Disintegration assay, IN50-288", "format": "biochemical", "conditions": "IN50-288, 3 μM"}, "[4]": {"design": "species or system cynomolgus monkeys", "conditions": "cynomolgus monkey, in vivo", "description": "Dosing. Twelve experimentally naive cynomolgus monkeys were assigned to four groups of three animals each. Prior to dosing, each animal was lightly sedated with a combination of ketamine (1 0 mg/kg) and diazepam (0.5 mg/kg), and a catheter was introduced into the femoral artery for recording central arterial pressure. Monkeys were given a single intravenous infusion of 5, 20, or 50 mg AR177/kg or saline over ten minutes through a cephalic vein catheter using a Harvard infusion pump. […] The concentration of AR177 in dosing solutions was confirmed post experiment by absorbance at 280 nm on a spectrophotometer. […] Electrocardiograms (ECGs), central pressure, and heart rate were recorded continuously for 120 minutes following the initiation of doing. […]\nSerum chemistry parameters. The following were determined: sodium, potassium, chloride, carbon dioxide, total bilirubin, direct bilirubin, indirect bilirubin, alkaline phosphatase, lactate dehydrogenase, aspartate aminotransferase, alanine aminotransferase, gamma-glutamyltransferase, calcium, phosphorus, glucose, urea nitrogen, creatinine, uric acid total protein, albumin, globulin, cholesterol and triglycerides. The samples were analyzed at Sierra Nevada Laboratories (Reno, Nev.)."}, "[5]": {"design": "species or system cynomolgus monkeys", "conditions": "cynomolgus monkey, in vivo; for AR177 plasma (CMAX): iv", "description": "Dosing. Twelve experimentally naive cynomolgus monkeys were assigned to four groups of three animals each. Prior to dosing, each animal was lightly sedated with a combination of ketamine (1 0 mg/kg) and diazepam (0.5 mg/kg), and a catheter was introduced into the femoral artery for recording central arterial pressure. Monkeys were given a single intravenous infusion of 5, 20, or 50 mg AR177/kg or saline over ten minutes through a cephalic vein catheter using a Harvard infusion pump. Arterial blood samples were drawn at −10, +10, +20, +40, +60 and +120 minutes relative to the initiation of infusion into EDTA-containing tubes for hematology, complement factors, coagulation assay, serum chemistry, and plasma AR177 determination. At 24 hours post-infusion, blood was drawn via the femoral vein into EDTA-containing tubes for these same parameters. The concentration of AR177 in dosing solutions was confirmed post experiment by absorbance at 280 nm on a spectrophotometer. For the determination of AR177 by HPLC, the plasma fraction was obtained by low speed centrifugation of blood, and stored at −20° C. until used. Electrocardiograms (ECGs), central pressure, and heart rate were recorded continuously for 120 minutes following the initiation of doing. Table E-1 summarizes the study design. The animals were observed twice daily pharmacotoxic signs and general health beginning two days before dosing and for seven days following dosing. The monkeys were not necropsied at the end of the study.\nHPLC analysis of AR177 plasma concentration. AR177 was assayed in the plasma using an anion-exchange HPLC method on a Waters HPLC system with a 626 pump, 996 photodiode array detector, 717 autosampler and Millennium system software controlled by an NEC Image 466 computer. Buffer A consisted of 0.1 M Tris base, 20% methanol, pH 12, and Buffer B consisted of 0.1 M Tris base, 1.0 M NaBr, pH 12. The anion-exchange column (Gen-Pak Fax column) was equilibrated at 80% buffer A/20% buffer B for 30 minutes before each HPLC run. Fifty microliters of 0.2˜filtered, neat plasma were analyzed per run. The elusion conditions were: a) five-minute isoaatic run at 80% A/20% B. during which the majority of the plasma proteins eluted, b) 25-minute linear gradient to 30% A/70% B during which AR177 elutes, c) five-minute Socratic run at 30% A/70% B. d) one-minute linear gradient to 100% B. e) two-minute run at 100% B for column clean-up, and fl two-minute linear gradient to 70% A/30% B for the step in the HPLC clean-up. The high pH (12) of the elusion buffers was necessary to dissociate AR177 from tissue constituents, which bind AR177 tightly around physiological pH. AR177 is completely stable at pH 12. This method can clearly distinguish between the full length AR177 and n-1, n-2, etc. species, which are potential metabolic products. The ultraviolet detection wavelength was 260 nm. The flow rate was 0.5 mL/minute in all steps. Column clean up between runs was performed by a 500 pL bolus injection of 0.1 M Tris base, 2 M NaCl, pH 10.5, followed by: a) ten-minute linear gradient to 60% A/40% B. b) one-minute linear gradient to 100% B. c) a three-minute isocratic run at 100% B and d) one-minute linear gradient to 80% A/20% B.\nA standard curve was generated by spiking AR177 into cynomolgus monkey plasma in order to achieve concentrations of 0.04 to 128 μ/mL. The plasma standards and unspiked plasma (control) were run on the anion-exchange HPLC column using e above conditions. The Waters Millennium software was used to determine the area under the peak for each AR177 standard at 260 nm. The HPLC peak area versus AR177 concentration was plotted using Cricket Graph III 1.5.1 software. There were one to three HPLC replicate runs per AR177 standard. The limit of quantitation was 25 ng/mL (50 pL injection), whereas the limit of detection was 5 ng/mL (50 pL injection). […]"}},
  "note": "Entries after “also recorded” stand apart in the source; their conditions may differ. Read-outs that look alike come from different tables or passages of the source.",
  "data": [
    {"molecule": "Cc1cn([C@H]2C[C@H](N=[N+]=[N-])[C@@H](CO)O2)c(=O)[nH]c1=O", "note": "[AZT, 3′-azido-3′-deoxythymidine]", "values": [
      {"measurement": "IC50", "setting": "HIV-1DV [1]", "value": 400, "unit": "nM"}
    ]},
    {"molecule": "5′-gtggtgggtgggtgggt-3′ [T30177] (GTGGTGGGTGGGTGGGT; phosphorothioate termini, further chemistry not given here)", "values": [
      {"measurement": "viral load (plasma HIV-1 RNA)", "setting": "HIV-1", "value": "viral load was significantly reduced"}
    ]},
    {"molecule": "5′-gtggtgggtgggtgggt-3′ (GTGGTGGGTGGGTGGGT; phosphorothioate termini, further chemistry not given here) [T30177]", "values": [
      {"measurement": "HIV-1 replication in macrophages", "setting": "HIV-1DV [2]", "value": "significantly inhibited HIV-1 replication in macrophages"},
      {"measurement": "viral cDNA 12 hours post-infection, drug added at time of infection", "setting": "HIV-1SKI", "value": "viral cDNA was detected"},
      {"measurement": "inhibition of HIV-1 protease", "setting": "HIV-1 protease", "value": "No observable inhibition; also recorded: no effect on the viral enzyme was observed"},
      {"measurement": "IC50", "setting": "HIV-1 integrase IN1-288", "value": 270, "unit": "nM"},
      {"measurement": "inhibition of disintegration", "setting": "[3]", "value": "≤ 30", "unit": "%"},
      {"measurement": "serum chemistry parameters", "setting": "[4]", "value": "no changes"},
      {"measurement": "initial plasma half-life", "setting": "[5]", "value": "20 to 30", "unit": "min"},
      {"measurement": "initial volume of distribution (Vd) of the three doses", "setting": "[5]", "value": "200 to 248", "unit": "mL"},
      {"measurement": "metabolites in plasma", "setting": "[5]", "value": "No metabolites"},
      {"measurement": "terminal plasma half-life", "setting": "[5]", "value": "approximately 24 hours"},
      {"measurement": "Vd", "setting": "[5]; 5 mg/kg", "value": "247.6 ± 21.4", "unit": "mL"},
      {"measurement": "Vd", "setting": "[5]; 20 mg/kg", "value": "184.5 ± 14.3", "unit": "mL"},
      {"measurement": "Vd", "setting": "[5]; 50 mg/kg", "value": "200.7 ± 56.4", "unit": "mL"},
      {"measurement": "AR177 plasma (CMAX)", "setting": "[5]; 5 mg/kg", "value": "83.2 ± 7.2", "unit": "µg/mL"},
      {"measurement": "AR177 plasma (CMAX)", "setting": "[5]; 20 mg/kg", "value": "397.8 ± 30.8", "unit": "µg/mL"},
      {"measurement": "AR177 plasma (CMAX)", "setting": "[5]; 50 mg/kg", "value": "804.7 ± 226.3", "unit": "µg/mL"},
      {"measurement": "IC50 virus-induced cytopathogenicity", "setting": "Polio virus-1; Polio virus-1", "value": ">200", "unit": "µg/mL"},
      {"measurement": "MCC minimum concentration altering normal cell morphology", "setting": "Polio virus-1; Polio virus-1 assay", "value": "≧400 μg/mL"}
    ]}
  ]
}
